According to publication PMC9227781, “Inhibitors of O-Acetylserine Sulfhydrylase with a Cyclopropane-Carboxylic Acid Scaffold Are Effective Colistin Adjuvants in Gram Negative Bacteria” (Pharmaceuticals, 2022):
In brackets after ≈: the same amount, converted by molar mass.

Experiments:
[1] = test system: E. coli ATCC 25922; assay: MIC by broth microdilution, E. coli; type: cell-based, Escherichia coli; conditions: MHB; for MIC: Escherichia coli, ATCC25922, read-out: MIC (μg/mL) E.coli ATCC 25922
Experimental: (§1) MIC values were evaluated following CLSI guidelines with some modifications, as referred to in previous work. Twofold dilutions 25.6–0.05 mg/mL of the tested compounds were performed in DMSO in separate 96-well microtiter U-plates (Greiner, Milan, Italy). In a different 96-well microtiter U-plate, for each well of the replicates, 49 µL of broth medium were added. Then, in each well of the plate, one microliter of each compound at variable dilution in DMSO was added. For each test, three independent experiments with three replicates each were performed. Tested reference bacterial strains (E. coli ATCC25922; S. Typhimurium ATCC14028; K. pneumoniae ATCC13883) were brought to the logarithmic phase of growth in MHB medium by incubation at 37 °C for 24 h. After incubation, bacterial suspensions were centrifuged (2000 rpm, 4 °C for 20 min), and then the pellets were resuspended in 100 mM phosphate buffer, pH 7.0, to reach a final bacterial concentration of 10^8 CFU/mL, adjusted by spectrophotometry (OD620nm ranged between 0.08–0.13). The obtained suspensions were further diluted 1:100 in broth medium to reach a bacterial concentration of 10^6 CFU/mL. Fifty µL of the bacterial suspension containing 10^6 CFU/mL were inoculated into each well within 30 min, to obtain a final concentration of 5 × 10^5 CFU/mL in a total volume of 100 µL. The final dilution range tested was 256–0.5 µg/mL. Growth and sterility controls were performed for each strain and for each tested compound. Plates were then incubated for 24 h at 37 °C in a static aerobic atmosphere. After incubation, plates were read by unaided eye with a microtiter reading mirror and then the OD of each well of the plates was measured spectrophotometrically at 620 nm. MIC values were calculated as the arithmetic mean ± standard deviation (SD) of the unaided eye reading and the inhibition of growth for each tested dilution was calculated from the OD values (mean ± SD). A quality control microorganism (E. coli ATCC 25922) was tested periodically to validate the accuracy of the procedure.

[2] = test system: S. Typhimurium ATCC14028; assay: MIC by broth microdilution, S. Typhimurium; type: cell-based, Salmonella enterica serovar Typhimurium; conditions: MHB; for MIC: Salmonella enterica, read-out: MIC (μg/mL) S. Typhimurium ATCC14028
Experimental: as §1

[3] = test system: K. pneumoniae ATCC13883; assay: MIC by broth microdilution, K. pneumoniae; type: cell-based, Klebsiella pneumoniae; conditions: MHB; for MIC: Klebsiella pneumoniae, ATCC13883, read-out: MIC (μg/mL) K. pneumoniae ATCC13883
Experimental: as §1

[4] = test system: S. Typhimurium DW378; assay: Target engagement: MIC of 12h and colistin in cysK/cysM-inactive mutant strain; type: cell-based, Salmonella enterica serovar Typhimurium; conditions: colistin alone
Experimental: In this regard, compound 12h has been selected because of its favorable overall properties. It has been tested at a concentration of 32 μg/mL, in order to ensure complete inactivation of both the OASS isoforms. […] The MIC assays of 12h and colistin alone on the DW378 strain have been performed and they have been compared with those obtained on the WT strain. […] But, on the other hand, the MIC value of colistin was […] lower on the mutant strain than that on the WT, a result that overlapped those achieved with the association of colistin and 12h in WT cells.
MIC values were evaluated following CLSI guidelines with some modifications, as referred to in previous work. Twofold dilutions 25.6–0.05 mg/mL of the tested compounds were performed in DMSO in separate 96-well microtiter U-plates (Greiner, Milan, Italy). In a different 96-well microtiter U-plate, for each well of the replicates, 49 µL of broth medium were added. Then, in each well of the plate, one microliter of each compound at variable dilution in DMSO was added. For each test, three independent experiments with three replicates each were performed.
Antimicrobial activity of associations between the different compounds and colistin (Sigma-Aldrich, St. Louis, MO, USA, lot n. 049M-4836 V) was tested with checkerboard assay with minor modifications, as mentioned in the previous work. For each assay, three experiments with three replicates each were assessed. For each compound tested concentration, 96-wells microtiter U-plates were prepared with twofold serial dilutions of colistin in MHB starting from the MIC value (µg/mL) for ten consecutive dilutions in 50 µL of broth. In each well of the same replicate, 1 µL of each compound in DMSO was added at a fixed concentration, 100 times higher than the final desired concentration (3.2; 1.6; 0.8 mg/mL). Subsequently, 49 µL of the bacterial suspension at a concentration of 10^6 CFU/mL, adjusted spectrophotometrically as reported above, was added to each well, reaching the final bacterial concentration of 5 × 10^5 CFU/mL. Growth and sterility controls were performed for each experiment and for each replicate. Finally, the plates were incubated at 37 °C in aerobic atmosphere for 24 h. After incubation, plates were read by unaided eye with a microtiter reading mirror and then the OD of each well of the plates was measured spectrophotometrically at 620 nm. MIC values were calculated as the arithmetic mean ± SD of the unaided eye reading and the inhibition of growth for each tested dilution was calculated from the OD values (mean ± SD).
* This strain is defective for the expression of cysK and cysM genes, encoding for isozymes OASS-A and B. The genotypes of this strain are trpC109, cysK1772, and cysM1770. […]

[5] = biological target: T1, StOASS-A (Salmonella typhimurium, UniProt P0A1E3); assay: Fluorescence binding assay on purified recombinant StOASS-A; parameters: species or system S. Typhimurium; conditions: 20 °C, 100 mM HEPES, 5% DMSO, pH 7.0; racemic mixture; esters tested up to 100 μM
T1 construct: His-tag (with TEV site) (cleaved yes); made in house; host or cells: E. coli Rosetta (DE3)
Experimental: (§2) The affinity of the compounds for StOASS-A and StOASS-B was determined on the purified recombinant proteins by an in vitro fluorescence binding assay. Measurements were carried out at 20 °C in a 3 mm pathlength quartz microcuvette in 100 mM HEPES, 5% DMSO (Applichem, Darmstadt, Germany), pH 7.0, using a Fluoromax-4 (Horiba Jobin-Yvon, Kyoto, Japan) spectrofluorometer. Emission spectra of solutions containing 0.2–1.0 μM StOASS, upon excitation of the pyridoxal 5′-phosphate cofactor at 412 nm, in the presence of increasing concentrations of compounds were collected; fluorescence intensities at 500 nm were plotted to compound concentration and data were fitted to a binding isotherm: I=I0+ΔI·compound/KD+compound where I is the fluorescence emission intensity at 500 nm in the presence of a given concentration of compound, I0 is the initial fluorescence emission in the absence of ligands, ΔI is the amplitude of the fluorescence emission change and KD is the dissociation constant. When the KD was lower than the protein concentration, data were fitted to the quadratic equation: I=I0+ΔI·OASS+compound+KD−OASS+compound+KD^2−4·OASS·compound/2
(§3) Data were collected in duplicate.
(§4) Esters were tested up to a concentration of 100 μM and no binding was observed.

[6] = biological target: T2, StOASS-B (Salmonella typhimurium, UniProt P29848); assay: Fluorescence binding assay on purified recombinant StOASS-B; conditions: 20 °C, 100 mM HEPES, 5% DMSO, pH 7.0; racemic mixture; esters tested up to 100 μM
T2 construct: His-tag (with TEV site) (cleaved yes); made in house; host or cells: E. coli Rosetta (DE3)
T2 sequence (P29848 1-303): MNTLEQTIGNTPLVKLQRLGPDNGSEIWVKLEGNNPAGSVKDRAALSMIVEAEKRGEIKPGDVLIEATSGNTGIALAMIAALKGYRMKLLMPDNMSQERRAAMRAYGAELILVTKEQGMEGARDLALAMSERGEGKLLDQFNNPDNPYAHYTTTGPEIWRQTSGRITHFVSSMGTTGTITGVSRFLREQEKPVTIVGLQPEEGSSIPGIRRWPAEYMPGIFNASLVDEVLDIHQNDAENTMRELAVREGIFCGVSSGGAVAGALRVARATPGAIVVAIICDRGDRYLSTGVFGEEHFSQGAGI
Experimental: as §2, §3, §4

[7] = test system: MDBK cells; assay: Cytotoxicity assay (MTT) on MDBK cells; type: cell-based, bovine; conditions: 32, 16, 8 µg/mL; MTT test
Experimental: The cytotoxicity assay was performed using the 3-(4,5-dimethylthiazol-2-yl)-2,5-diphenyltetrazolium bromide (MTT) test, following the procedure used by Donofrio et al.. MDBK cells were cultured on microtiter tissue culture plates in DMEM medium for 24 h at 37 °C in the presence of 5% CO2. After incubation, when the cell monolayer was at confluence, an aliquot of 1 µL of UPAR415 in DMSO at different concentrations was added in each well, containing a volume of 100 µL of DMEM medium and MDBK cells, and then the plates were reincubated at the same conditions. After incubation, 10 µL of MTT at 200 mg/mL (3-(4,5-dimethylthiazol-2-yl)-2,5-diphenyltetrazolium bromide) was added to each well and incubated at 37 °C for 6 h. At the end of the incubation, 100 µL of the solubilization solution (10% SDS in 0.01 M HCl) was added to each well and then incubated overnight. The MTT compound, a yellow tetrazolium salt, is reduced by mitochondrial enzymes (succinate dehydrogenase) of metabolically active eukaryotic cells to insoluble formazan crystals. In the presence of metabolically active cells, after the addition of a detergent solution (10% SDS in […]) that allows the formazan to be released from the cells, a violet color is seen in the medium. Instead, in the presence of non-viable cells, MTT is not reduced to formazan and therefore the solution will remain yellow.
After incubation, plates were read with a spectrophotometer at 620 nm. Positive controls (PC)—without any compounds—and PCs with 1% DMSO were performed for each plate and three replicates for two independent experiments were performed for each assay.

T1 sequence (P0A1E3 whole entry): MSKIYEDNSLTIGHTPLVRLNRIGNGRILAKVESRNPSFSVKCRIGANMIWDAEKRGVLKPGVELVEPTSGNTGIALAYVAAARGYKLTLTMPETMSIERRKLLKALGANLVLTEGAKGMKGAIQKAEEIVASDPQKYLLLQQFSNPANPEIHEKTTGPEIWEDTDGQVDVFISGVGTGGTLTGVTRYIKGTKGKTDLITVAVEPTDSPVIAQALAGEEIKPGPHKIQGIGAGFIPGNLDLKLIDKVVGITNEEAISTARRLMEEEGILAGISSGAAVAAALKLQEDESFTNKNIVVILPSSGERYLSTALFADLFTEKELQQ

Compound: Colistin [reference compound]
- MIC Colistin E. coli ([1]; colistin alone): 0.39 ± 0.25 µg/mL
- MIC Colistin S. Typhimurium ([2]; colistin alone, ATCC14028 (wild type)): 0.53 ± 0.19 µg/mL
- MIC Colistin K. pneumoniae ([3]; colistin alone): 4.00 ± 1.73 µg/mL
- MIC Colistin ([4]; DW378 mutant strain): 0.141 ± 0.09 µg/mL
- MIC of colistin on mutant strain DW378 relative to WT (fold lower) ([4]; DW378 versus wild type): 5 fold

Compound: CCOC(=O)[C@]1(Cc2ccc(C)cc2)C[C@H]1c1cccc(N2CCNCC2)c1 (relative stereo) [Compound 20i, trans-ethyl 1-(4-methylbenzyl)-2-(3-(piperazin-1-yl)phenyl)cyclopropanecarboxylate]
- KD (μM) OASS-A [5]: No binding
- KD (μM) OASS-B [6]: No binding
- MIC ([1]; compound alone, 24 h at 37 °C): 40 µg/mL (≈ 106 µM)
- MIC (μg/mL) E.coli ATCC 25922 ([1]; compound alone, 24 h at 37 °C): measurable antimicrobial activity
- MIC ([2]; compound alone, 24 h at 37 °C): 36 µg/mL (≈ 95.1 µM)
- MIC (μg/mL) S. Typhimurium ATCC14028 ([2]; compound alone, 24 h at 37 °C): measurable antimicrobial activity
- MIC ([3]; compound alone, 24 h at 37 °C): 32 µg/mL (≈ 84.5 µM)
- MIC (μg/mL) K. pneumoniae ATCC13883 ([3]; compound alone, 24 h at 37 °C): measurable antimicrobial activity
- Toxicity on viability of MDBK cells [7]: high toxicity profiles

Compound: CCOC(=O)C1(Cc2ccc(C)cc2)CC1c1cccc(-c2c[nH]nc2C)c1 (centres unmarked) [Compound 8b, ethyl 2-(3-(3-methyl-1H-pyrazol-4-yl)phenyl)-1-(4-methylbenzyl)cyclopropanecarboxylate]
- KD (μM) OASS-A [5]: No binding
- KD (μM) OASS-B [6]: No binding
- MIC ([1]; compound alone, 24 h at 37 °C): > 512 µg/mL
- MIC ([2]; compound alone, 24 h at 37 °C): > 512 µg/mL
- MIC ([3]; compound alone, 24 h at 37 °C): > 512 µg/mL
- Toxicity on viability of MDBK cells [7]: high toxicity profiles

Compound: CCOC(=O)[C@]1(Cc2ccc(C)cc2)C[C@H]1c1cccc(-c2cccc(F)c2)c1 (relative stereo) [Compound 8f, trans-ethyl 2-(3′-fluoro-[1,1′-biphenyl]-3-yl)-1-(4-methylbenzyl)cyclopropanecarboxylate]
- KD (μM) OASS-A [5]: No binding
- KD (μM) OASS-B [6]: No binding
- MIC ([1]; compound alone, 24 h at 37 °C): > 512 µg/mL
- MIC ([2]; compound alone, 24 h at 37 °C): > 512 µg/mL
- MIC ([3]; compound alone, 24 h at 37 °C): > 512 µg/mL
- Toxicity on viability of MDBK cells [7]: proliferative effects

Compound: CCOC(=O)[C@]1(Cc2ccc(C)cc2)C[C@H]1c1cccc(N2CCN(C)CC2)c1 (relative stereo) [Compound 20j, trans-ethyl 1-(4-methylbenzyl)-2-(3-(4-methylpiperazin-1-yl)phenyl)cyclopropanecarboxylate]
- KD (μM) OASS-A [5]: No binding
- KD (μM) OASS-B [6]: No binding
- MIC ([1]; compound alone, 24 h at 37 °C): > 512 µg/mL
- MIC ([2]; compound alone, 24 h at 37 °C): > 512 µg/mL
- MIC ([3]; compound alone, 24 h at 37 °C): > 512 µg/mL
- Toxicity on viability of MDBK cells [7]: high toxicity profiles

Compound: CCOC(=O)[C@]1(Cc2ccc(C)cc2)C[C@H]1c1cccc(N2CCOCC2)c1 (relative stereo) [Compound 12g, trans-ethyl 1-(4-methylbenzyl)-2-(3-morpholinophenyl)cyclopropanecarboxylate]
- KD (μM) OASS-A [5]: No binding
- KD (μM) OASS-B [6]: No binding
- MIC ([1]; compound alone, 24 h at 37 °C): > 512 µg/mL
- MIC ([2]; compound alone, 24 h at 37 °C): > 512 µg/mL
- MIC ([3]; compound alone, 24 h at 37 °C): > 512 µg/mL
- Toxicity on viability of MDBK cells [7]: proliferative effects

Compound: CCOC(=O)[C@]1(Cc2ccc(C)cc2)C[C@H]1c1cccc(-c2cn[nH]c2)c1 (relative stereo) [Compound 8c, trans-ethyl 2-(3-(1H-pyrazol-4-yl)phenyl)-1-(4-methylbenzyl)cyclopropanecarboxylate]
- KD (μM) OASS-A [5]: No binding
- KD (μM) OASS-B [6]: No binding
- MIC ([1]; compound alone, 24 h at 37 °C): > 512 µg/mL
- MIC ([2]; compound alone, 24 h at 37 °C): > 512 µg/mL
- MIC ([3]; compound alone, 24 h at 37 °C): > 512 µg/mL
- Toxicity on viability of MDBK cells [7]: high toxicity profiles
